Experimental data: article PMC8453901, “GLPG1205, a GPR84 Modulator: Safety, Pharmacokinetics, and Pharmacodynamics in Healthy Subjects” (Clinical Pharmacology in Drug Development, 2021)

Experiments:
[1] = set-up: method as in data on file at Galapagos, 17; conditions: separate study; ref data on file at Galapagos, 17; cited from earlier work
CYP1A2 = test system: CYP1A2; set-up: method as in data on file at Galapagos, 8, 9; conditions: 100 mg once daily, healthy male subjects; ref data on file at Galapagos, 8, 9; cited from earlier work
[2] = set-up: method as in PMID 32902984; conditions: monkeys, up to 30 mg/kg/d; cited from earlier work
[3] = Safety and tolerability, study 2; format: in vivo, human
Procedure: (§1) Safety and tolerability were assessed on the basis of adverse events (AEs), which were monitored throughout both studies. Additional safety assessments included vital signs (including supine [and standing in study 2] heart rate, systolic and diastolic blood pressure, and oral body temperature), 12‐lead electrocardiogram (ECG), clinical laboratory tests (hematology, coagulation [study 2 only], serum/plasma chemistry, urinalysis, urine drug screen, serology, and alcohol breath test), and a comprehensive physical examination. In the SAD part of study 1, clinical laboratory tests, physical examination, and vital signs were assessed at the screening visit, at the time of dosing (0 hours after dose), 24 hours after dosing and at follow‐up (7 to 10 days after the final dose). Vital signs were additionally observed 2 hours after dosing, and the 12‐lead ECG was additionally completed at 1, 2, 6, 8, and 12 hours after dosing. In the MAD part of study 1, all additional safety assessments were performed at screening; days 1, 2, 8, 14, and 15; and at follow‐up. In study 2, additional safety assessments were performed at screening (between 21 and 2 days before the first study drug administration); days 1, 2, 5, 10, 14, 15, and 20 (clinical laboratory tests were not performed on day 20); at early discontinuation; and at follow‐up. For study 2, renal function tests (measurement of estimated creatinine clearance rate using the Cockcroft‐Gault equation) were also included in the clinical laboratory tests for safety assessment.
(§2) In both studies, the safety analysis was descriptive and focused on changes from baseline and treatment‐emergent findings.

CYP2C19 = test system: CYP2C19; set-up: method as in data on file at Galapagos, 8, 9; conditions: 100 mg once daily, healthy male subjects; ref data on file at Galapagos, 8, 9; cited from earlier work
[4] = Safety across both studies and all dose groups; format: in vivo, human; conditions: both studies
Procedure: as §1, §2

CYP2C9 = test system: CYP2C9; set-up: method as in data on file at Galapagos; conditions: in vitro; ref data on file at Galapagos; cited from earlier work
[5] = set-up: method as in PMID 32902984; conditions: human and animals; cited from earlier work
CYP2B6 = test system: CYP2B6; set-up: method as in data on file at Galapagos; conditions: in vitro; ref data on file at Galapagos; cited from earlier work
[6] = part 1, 50 mg QD, 18–50 years (n = 6)
[7] = part 1, 50 mg QD, 65–74 years (n = 6)
[8] = part 1, 50 mg QD, ≥ 75 years (n = 6)
[9] = part 2, 250 mg loading dose + 50 mg QD, 65–74 years (n = 8)

For `O=c1nc(OC[C@@H]2COCCO2)cc2n1CCc1cc(C#CC3CC3)ccc1-2` [GLPG1205, 9‐cyclopropylethynyl‐2‐((S)‐1‐[1,4]dioxan‐2‐ylmethoxy)‐6,7‐dihydropyrimido[6,1‐a]isoquinolin‐4‐one], the “food effect on GLPG1205 exposure” value [1] is listed as “no food effect”, the “effect on exposure of CYP1A2” value (CYP1A2) is listed as “did not affect the exposure” and the dose-proportionality of exposure [2] is listed as “increased dose‐proportionally”. The “Any TEAE” value [3, 6] was 5 (83.3) number of subjects (%), the “Diarrhea (TEAE)” value [3, 6] was 0 number of subjects (%) and the “Erectile dysfunction (TEAE)” value [3, 6] was 2 (33.3) number of subjects (%). For the same compound, the “Gastrointestinal disorders (TEAE)” value [3, 6] was 2 (33.3) number of subjects (%), the “Headache (TEAE)” value [3, 6] was 3 (50.0) number of subjects (%) and the “Infections and infestations (TEAE)” value [3, 6] was 1 (16.7) number of subjects (%). The “Nasopharyngitis (TEAE)” value [3, 6] was 1 (16.7) number of subjects (%), the “Nausea (TEAE)” value [3, 6] was 2 (33.3) number of subjects (%) and the “Nervous system disorders (TEAE)” value [3, 6] was 3 (50.0) number of subjects (%). The “Reproductive system and breast disorders (TEAE)” value [3, 6] was 2 (33.3) number of subjects (%), the “Vomiting (TEAE)” value [3, 6] was 0 number of subjects (%) and the “Any TEAE” value [3, 7] was 5 (83.3) number of subjects (%). The “Diarrhea (TEAE)” value [3, 7] was 0 number of subjects (%), the “Erectile dysfunction (TEAE)” value [3, 7] was 0 number of subjects (%) and the “Gastrointestinal disorders (TEAE)” value [3, 7] was 1 (16.7) number of subjects (%). The “Headache (TEAE)” value [3, 7] was 3 (50.0) number of subjects (%), the “Infections and infestations (TEAE)” value [3, 7] was 3 (50.0) number of subjects (%) and the “Nasopharyngitis (TEAE)” value [3, 7] was 2 (33.3) number of subjects (%). For the same compound, the “Nausea (TEAE)” value [3, 7] was 0 number of subjects (%), the “Nervous system disorders (TEAE)” value [3, 7] was 4 (66.7) number of subjects (%) and the “Reproductive system and breast disorders (TEAE)” value [3, 7] was 0 number of subjects (%). For the same compound, the “Vomiting (TEAE)” value [3, 7] was 0 number of subjects (%), the “Any TEAE” value [3, 8] was 3 (50.0) number of subjects (%) and the “Diarrhea (TEAE)” value [3, 8] was 0 number of subjects (%). The “Erectile dysfunction (TEAE)” value [3, 8] was 0 number of subjects (%), the “Gastrointestinal disorders (TEAE)” value [3, 8] was 1 (16.7) number of subjects (%) and the “Headache (TEAE)” value [3, 8] was 0 number of subjects (%). The “Infections and infestations (TEAE)” value [3, 8] was 0 number of subjects (%), the “Nasopharyngitis (TEAE)” value [3, 8] was 0 number of subjects (%) and the “Nausea (TEAE)” value [3, 8] was 0 number of subjects (%). The “Nervous system disorders (TEAE)” value [3, 8] was 0 number of subjects (%), the “Polyuria (TEAE)” value [3, 8] was 2 (33.3) 2 (33.3) number of subjects (%) and the “Renal and urinary disorders (TEAE)” value [3, 8] was 2 (33.3) 2 (33.3) number of subjects (%). For the same compound, the “Reproductive system and breast disorders (TEAE)” value [3, 8] was 0 number of subjects (%), the “Vomiting (TEAE)” value [3, 8] was 0 number of subjects (%) and the “Any TEAE” value [3, 9] was 7 (87.5) number of subjects (%). The “Diarrhea (TEAE)” value [3, 9] was 1 (12.5) number of subjects (%), the “Erectile dysfunction (TEAE)” value [3, 9] was 0 number of subjects (%) and the “Gastrointestinal disorders (TEAE)” value [3, 9] was 4 (50.0) number of subjects (%). For the same compound, the “Headache (TEAE)” value [3, 9] was 1 (12.5) number of subjects (%), the “Infections and infestations (TEAE)” value [3, 9] was 0 number of subjects (%) and the “Nasopharyngitis (TEAE)” value [3, 9] was 0 number of subjects (%). The “Nausea (TEAE)” value [3, 9] was 3 (37.5) number of subjects (%), the “Nervous system disorders (TEAE)” value [3, 9] was 1 (12.5) number of subjects (%) and the “Polyuria (TEAE)” value [3, 9] was 0 number of subjects (%). For the same compound, the “Renal and urinary disorders (TEAE)” value [3, 9] was 0 number of subjects (%), the “Reproductive system and breast disorders (TEAE)” value [3, 9] was 0 number of subjects (%) and the “Vomiting (TEAE)” value [3, 9] was 2 (25.0) number of subjects (%). The “nausea of mild intensity” value ([3]; part 2, loading dose) was 2 n, the “nausea of moderate intensity” value ([3]; part 2, loading dose) was 1 n and the “effect on exposure of CYP2C19” value (CYP2C19) was “did not affect the exposure”. The “ECG and vital signs” value [4] was “no clinically significant trends”, the “deaths or serious AEs” value [4] was “No deaths or serious AEs occurred” and the “subjects with headache (TEAE)” value ([4]; all GLPG1205 dose groups) was 17 subjects. The “subjects with nausea (TEAE)” value ([4]; all GLPG1205 dose groups) was 12 subjects, the “subjects with treatment-emergent AEs” value ([4]; all GLPG1205 dose groups) was 44 subjects and the “inhibition of CYP2C9” value (CYP2C9) was “weak inhibition”. For the same compound, the plasma protein binding [5] was at least 92% and the “inhibition of CYP2B6” value (CYP2B6) was “weak inhibition”.
